From US5166154A, “Imidazo[1,2-a]piperazines” (Boehringer Ingelheim Pharmaceuticals, Inc., priority 1991, dated 1992)
Where two headings read alike, the source gives them in different places.

Target: T1, Human sputum elastase (HSE) (Homo sapiens, UniProt P08246)
T1 construct: purchased Elastin Products Co., Pacific, Mo; host or cells: human sputum
T1 sequence (P08246 30-247 limits assumed): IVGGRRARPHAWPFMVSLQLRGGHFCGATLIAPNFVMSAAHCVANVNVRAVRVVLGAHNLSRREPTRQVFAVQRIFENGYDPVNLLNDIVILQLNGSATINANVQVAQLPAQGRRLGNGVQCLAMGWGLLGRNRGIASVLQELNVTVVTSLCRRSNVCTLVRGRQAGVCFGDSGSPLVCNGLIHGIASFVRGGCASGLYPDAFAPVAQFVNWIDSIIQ
Experiment: In vitro elastase inhibition, hydrolysis of MeO-Suc-Ala-Ala-Pro-Val-pNA (release of pNA, 405 nm)
Assay type: biochemical
Settings: 5 ug/mL, 0.5 mM substrate, pH 7.5, 15 min pre-incubation
Excerpt: The method of K. Nakajima et al., Journal of Biological Chemistry, 254: 4027-4032 (1979) was adapted to a microtiter format. The in vitro assay is based upon the hydrolysis of the commercially available (Sigma Chemical Company, St. Louis, Mo.) substrate methoxy O-succinyl-L-alanyl-L-alanyl-L-prolyl-L-valine para-nitroanilide (MeO-Suc-Ala-Ala-Pro-Val-pNA) and the release of para-nitroanilide (pNA), which absorbs at 405 nm.
a. Human sputum elastase (HSE) (Elastin Products Co., Pacific, Mo.) dissolved in 1 mg/mL in 0.05M sodium chloride and frozen (50 μL aliquots) at -20° C. until used.
b. Stock solution of MeO-succinyl-L-Alanyl-L-Alanyl-Pro-Val-pNA dissolved at 15 mM in dimethylsulfoxide (DMSO) and frozen (4 mL aliquots) at -20° C. until used.
c. Assay buffer: 0.1M Tris buffer, pH 7.5 containing 0.5M sodium chloride.
Screening is performed in microtiter plates, using 0.5 mM substrate and monitored on a Microtiter Reader. Enzyme activity (+/- test compound) is determined as the rate of pNA release (linear regression analysis of slope). Inhibitory activity of the test compound is calculated relative to the uninhibited enzyme control, as follows: [formula]
A frozen aliquot of HSE is thawed and diluted with assay buffer to a stock concentration of 0.02 mg/mL (30×assay concentration). A frozen aliquot of the substrate stock solution is thawed and diluted to 0.5 mM with the assay buffer (final DMSO concentration is […]). 10 μl of the test compound stock solution (or assay buffer) and 10 μl of the HSE stock solutions are pipetted into each microtiter well, in duplicate. The plate is mixed well, and pre-incubated at room temperature for 15 minutes. A 300 μl substrate solution is then added to each well and the OD405 is followed for approximately 30 minutes.
Further, it is known to those skilled in the art that the biological activities of pharmaceutical agents may be diminished in vitro when human serum albumin (HSA) is added. This is due to the probable binding of compounds to protein. In the case of the present invention, however, the compounds of the present invention are just as active in vitro without or with 0.5% HSA and thus would be expected not to bind to plasma in an in vivo situation or in a diagnostic setting.

[1] = 0% HSA (human serum albumin), read-out: % INHIBITION (5 ug/mL), 0% HSA
[2] = 0.5% HSA (human serum albumin), read-out: % INHIBITION (5 ug/mL), 0.5% HSA

| inhibition at 5 µg/mL [1] [%] | inhibition at 5 µg/mL [2] [%] | SMILES |
| --- | --- | --- |
| 86 | 84.5 | CC(C)C1N=C2CN(C3Cc4ccccc4C3)C(=O)[C@H](C(C)C)N2C1(O)C(F)(F)F (stereo partly drawn) |
| 47.5 | 58.6 | COc1ccc(CCN2CC3=NC(C(C)C)C(O)(C(F)(F)F)N3[C@@H](C(C)C)C2=O)cc1OC (stereo partly drawn) |
| 39.2 | 28 | CC(C)C1N=C2CN(C3CCCCCCC3)C(=O)[C@H](C(C)C)N2C1(O)C(F)(F)F (stereo partly drawn) |
